We go through 12 compounds from publication PMC12035807 (2025).

Usually KD stands for a measure of binding affinity in units of concentration.

Molecules are shown by their SMILES.

Assay [1] deals with Tte preQ1 riboswitch (not labelled) (RNA, riboswitch) CUGGGUCGCAGUAACCCCAGUUAACAAAACAAG
The experiment in a line: ITC. The settings on record: 100 mM NaCl, 6 mM MgCl2, 50 mM HEPES pH 7.0, 25 °C; for binding: loose binding in SPR; for KD: 0.2% DMSO.

Assay [2] has as its system 5'-Cy5-Ba SAM-VI riboswitch (RNA, riboswitch) GGCAUUGUGCCUCGCAUUGCACUCCGCGGGGCGAUAAGUCCUGAAAAGGGAUGUC
The experiment in a line: MST. To be noted: 100 mM KCl, 25 mM MgCl2, 50 mM Tris-HCl pH 7.5, 2% DMSO.

Assay [3] relates to 5'-Cy5-Tte preQ1 riboswitch (RNA, riboswitch) CUGGGUCGCAGUAACCCCAGUUAACAAAACAAG
Nature of the assay: MST. To be noted: 100 mM KCl, 25 mM MgCl2, 50 mM Tris-HCl pH 7.5, 2% DMSO.

Assay [4] concerns Ba SAM-VI riboswitch (label-free, IVT) (RNA, riboswitch) GGCAUUGUGCCUCGCAUUGCACUCCGCGGGGCGAUAAGUCCUGAAAAGGGAUGUC
Nature of the assay: ITC. The settings on record: 50 mM KCl, 10 mM MgCl2; 40 mM HEPES pH 7.0, 25 °C, 0.2% DMSO.

Assay [5] relates to 5'-Biotin-Tte preQ1 riboswitch (RNA, riboswitch) CUGGGUCGCAGUAACCCCAGUUAACAAAACAAG
Nature of the assay: SPR. To be noted: 150 mM NaCl, 6 mM MgCl2; 50 mM HEPES pH 7.0, 25 °C; loose unspecific, no saturation to 50 µM, KD not determinable.

Assay [6] has as its system 5'-Biotin-Ba SAM-VI riboswitch (RNA, riboswitch) GGCAUUGUGCCUCGCAUUGCACUCCGCGGGGCGAUAAGUCCUGAAAAGGGAUGUC
Nature of the assay: SPR, 1:1 kinetic fit. The settings on record: 150 mM NaCl, 6 mM MgCl2; 50 mM HEPES pH 7.0, 25 °C.

For assay [7], the system named is 5'-Biotin-Tte preQ1 riboswitch (RNA, riboswitch) CUGGGUCGCAGUAACCCCAGUUAACAAAACAAG
The experiment in a line: SPR, 1:1 kinetic fit. The settings on record: 150 mM NaCl, 6 mM MgCl2, 50 mM HEPES pH 7.0, 25 °C. (SPR reads the build-up and loss of mass on a sensor chip optically.)

For assay [8] the test system is unchanged. Nature of the assay: SPR, Interaction Map analysis. The settings on record: 150 mM NaCl, 6 mM MgCl2; 50 mM HEPES pH 7.0, 25 °C, 2% DMSO.

On to `NCCOc1ccc2[nH]c3ccccc3c2c1`, for which the binding entry in assay [1] (RNA 15 µM, ligand 150 µM) is recorded as “no”; in assay [2] (up to 1 mM), “no”.

Turning to `NCCCNC[C@H]1O[C@@H](n2cnc3c(N)ncnc32)[C@H](O)[C@@H]1O`, the figures for the binding result in assay [2] (20 nM RNA), in assay [3] (up to 1 mM) and in assay [5] were “yes”, “no” and “weak”, respectively. Besides, the dissociation constant (KD) is 0.00173 ± 0.00051 mM in assay [4] and 4170 ± 1560 nM in assay [6].

Regarding `NCCCCNCCCNCCOc1ccc2oc3ccccc3c2c1`, the binding result is “no” in assay [1] (RNA 15 µM, ligand 150 µM) and “no” in assay [2] (up to 1 mM).

Take `Nc1ncnc2c1ncn2[C@@H]1O[C@H](CNCC[C@H](N)C(=O)O)[C@@H](O)[C@H]1O`: the KD came out at 33.3 µM in assay [2] (20 nM RNA), 0.00331 ± 0.00021 mM in assay [4] and 12300 ± 1300 nM in assay [6]. Also, in assay [3] (up to 1 mM), the binding result is reported as “no”.

`C[S+](CC[C@H](N)C(=O)O)C[C@H]1O[C@@H](n2cnc3c(N)ncnc32)[C@H](O)[C@@H]1O` (some centres unmarked): the dissociation constant KD in assay [2] (20 nM RNA) is 0.718 ± 0.399 × 10^-6 M; in assay [4], 0.000671 ± 5.9e-05 mM; in assay [6], 3720 ± 410 nM. Moreover, the binding result in assay [3] (up to 1 mM) is on record as “no”.

On to `NCCOc1ccc2oc3ccccc3c2c1`, for which the binding result in assay [1] (RNA 30 µM, ligand 300 µM) was “no”; in assay [2] (up to 1 mM), “no”.

For the compound `NCCCNCCOc1ccc2oc3ccccc3c2c1`, the binding result in assay [1] (RNA 30 µM, ligand 300 µM) is given as “no”; in assay [2] (up to 1 mM), “no”.

For the compound `NCCCNCCOc1ccc2[nH]c3ccccc3c2c1`, the binding result is reported as “no” in assay [1] (RNA 30 µM, ligand 300 µM) and “no” in assay [2] (up to 1 mM).

On to `Nc1ncnc2c1ncn2[C@@H]1O[C@H](CSCC[C@H](N)C(=O)O)[C@@H](O)[C@H]1O`, for which the KD is 34.4 ± 12.0 × 10^-6 M in assay [2] (20 nM RNA), 0.014 ± 0.0042 mM in assay [4] and 150000 ± 39000 nM in assay [6]. Moreover, in assay [3] (up to 1 mM), the binding entry was “no”.

On to `NCCCCNCCCNCCOc1ccc2[nH]c3ccccc3c2c1`, for which the binding result in assay [1] (RNA 15 µM, ligand 150 µM) is “no”; in assay [2] (up to 1 mM), “no”.

For `NCc1c[nH]c2nc(N)[nH]c(=O)c12`, the equilibrium dissociation constant (KD) stood at 23.1 ± 7.4 nM in assay [1] and 19.1 nM in assay [7] (one representative sensorgram, replicates 18.5-47.4, mean not in material). In addition, the binding entry is recorded as “no” in assay [2] (up to 1 mM) and “yes” in assay [3] (20 nM RNA).

`N#Cc1c[nH]c2nc(N)[nH]c(=O)c12`: the KD in assay [1] came out at 85.4 ± 3.3 nM; in assay [7] (2% DMSO) it was 74.0 ± 29.4 nM; in assay [8], 134 nM. For the same compound, the values for the binding entry in assay [2] (up to 1 mM) and in assay [3] (20 nM RNA) were “no” and “yes”, respectively.
